According to US5459256A, “Lipophilic, aminohydrolase-activated prodrugs” (priority 1991, dated 1995):
Like-named read-outs stand apart in the source and are kept apart here.

How the values were obtained:
[1] = system: HIV-1/IIIB (CD4^+ ATH8 cells); experiment: HIV cytopathic effect inhibition assay in ATH8 cells (% protection); assay type: cell-based
Protocol: (§1) HIV Cytopathic Effect Inhibition Assay.
(§2) The HIV cytopathic effect inhibition assay was performed as previously described. (Mitsuya, H. & Broder, S. Proc. Nat. Acad. Sci. USA 1986, 83, 1911) Briefly, 200,000 target CD4^+ ATH8 cells were exposed to cell-free HIV-1/IIIB at a dose of 43 (or 1087 for compound 1g) TCID50 (50% tissue culture infectious dose) for 1 h, resuspended in 2 ml of fresh culture media containing interleukin 2, and cultured at 37° C. with or without test compounds in 5% CO2 -containing humidified air. On day 8 in culture, the viable cells were counted by using the dye exclusion method. All compounds, including inactives, were evaluated a minimum of two times in separate experiments. Data reported in Table II are from representative tests. The % protection against the virus was determined by the following formula: 100 times [(the number of viable cells exposed to HIV-1 and cultured in the presence of the compound minus the number of viable cells exposed to HIV-1 and cultured in the absence of compound) divided by (the number of viable cells cultured alone minus the number of viable cells exposed to HIV-1 and cultured in the absence of the compound)]. The % toxicity of a compound on the target cells was determined by the following formula: 100 times [1 minus (the number of total viable cells cultured in the presence of the compound divided by the number of total viable cells cultured alone)]. Calculated percentages equal to or less than zero are expressed as 0%.
^a ATH8 cells were exposed to HIV1/IIIB per cell for 1 hr and
cultured in the presence of various concentrations of each compound. On
day 8, the total viable cells were counted. Orders of numbers in the
column for concentrations correspond to the orders of numbers in other

[2] = system: CD4^+ ATH8 cells; experiment: Toxicity on ATH8 target cells (% toxicity, dye exclusion); assay type: cell-based
Protocol: as §1
as §2, with “(Mitsuya, H. & Broder, S. Proc. Nat. Acad. Sci. USA 1986, 83, 1911) Briefly, 200,000 target CD4^+ ATH8 cells were exposed to cell-free HIV-1/IIIB at a dose of 43 (or 1087 for compound 1g) TCID50 (50% tissue culture infectious dose) for 1 h, resuspended in 2 ml of fresh culture media containing interleukin 2, and cultured at 37° C. with or without test compounds in 5% CO2 -containing humidified air.” left out

[3] = target: T1, adenosine deaminase (adenosine aminohydrolase, EC 3.5.4.4) (Bos taurus, UniProt P56658); experiment: Enzymatic deamination by adenosine deaminase (HPLC); conditions: for half-life at 50 µM: bovine, adenosine deaminase
T1 sequence (P56658 1-363): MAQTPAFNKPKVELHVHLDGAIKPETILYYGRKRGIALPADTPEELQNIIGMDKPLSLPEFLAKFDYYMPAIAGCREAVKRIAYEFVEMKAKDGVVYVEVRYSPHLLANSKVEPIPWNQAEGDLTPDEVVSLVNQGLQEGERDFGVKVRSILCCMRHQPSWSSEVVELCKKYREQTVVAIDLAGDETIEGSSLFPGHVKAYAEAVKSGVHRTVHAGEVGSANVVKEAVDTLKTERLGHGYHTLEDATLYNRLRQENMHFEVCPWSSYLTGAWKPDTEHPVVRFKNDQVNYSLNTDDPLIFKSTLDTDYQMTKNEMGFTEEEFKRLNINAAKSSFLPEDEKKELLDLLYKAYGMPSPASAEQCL
Protocol: FIG. 1. Deamination of dideoxyadenosine analogues by adenosine deaminase. Hydrolysis kinetics and 2'-F-dd-ara-I formation during the incubation of 50 μM N^6 -CH3 -2'-F-dd-ara-A (1f) with 0.7 units/mL of adenosine deaminase at 37° C. A unit of adenosine deaminase is the amount of enzyme which hydrolyzes a standard substrate (e.g., adenosine) at the rate of 1.0 μmole/min at 25° C. and pH 7.5. […] Insert: Adenosine deaminase hydrolysis kinetics for 50 μM ddA and 2'-F-dd-ara-A. The hydrolysis curve for ddA has been extrapolated from kinetics obtained with 0.07 units/mL of adenosine deaminase under identical conditions.
A 50 μl aliquot of a 10 mg/ml suspension of adenosine deaminase (adenosine aminohydrolase, EC 3.5.4.4) from calf intestinal mucosa was centrifuged at 600×g for 3 min. The residue remaining after removal of the (NH4)2 SO4 supernatant was dissolved in 0.5 ml pH 7.4 tris(hydroxymethyl)-aminomethane (Tris) buffer to give an enzyme solution of 1 mg/ml (274 units/ml). […] A pH 7.4 buffer was prepared by adjusting 0.01M Tris to pH 7.4 with 0.5N HCl, The 1.0 HCl , HPLC-grade acetonitrile, monobasic potassium phosphate, sodium hydroxide and ultrapure Tris were all commercially available and were used without further purification.
Enzymatic Deamination of Adenosine Analogues. […] A 50 μL aliquot of substrate solution was diluted with 0.95 ml 0.01M Tris buffer in a 1.5-mL Eppendorf tube and equilibrated at 37° C. in a Dubnoff metabolic shaking incubator. Reaction was initiated by addition of 2.5 μL of adenosine deaminase solution (0.7 unit). At specified time intervals, a 50 μL aliquot of the reaction mixture was withdrawn and quenched by mixing with 0.45 mL cold 2 μM 2'-deoxycoformycin. This diluted sample was ultrafiltered to remove enzyme in a Centrifree Micropartition unit by centrifugation at 600×g at 4° C. in a high speed refrigerated centrifuge. The decrease in substrate concentration was monitored by HPLC analysis of the resultant ultrafiltrate (see below). The ability of 2'-deoxycoformycin to inhibit deamination under the above conditions was evaluated by adding 2 μL of 1.0 mM inhibitor to diluted substrate solutions at the time of equilibration. Reaction, sampling and analysis were carried out as above. […] Initial hydrolysis rates for each substrate concentration were measured through linear least-squares curve fitting of the concentration versus time data for reaction of the first 10% of substrate. KM and vmax values for each substrate were then determined from a graphical lineweaver-Burke plot of these initial rates (FIG. 1).
HPLC Analysis of Dideoxypurine Nucleosides.
Concentrations of dideoxynucleosides were measured by the HPLC analysis of 100 μL aliquots of ultrafiltered samples. A 4.6×250 mm 5-μm Ultrasphere-ODS column, protected by a Waters guard column packed with 37-50 μm Vydac 201SC, was eluted with 10-20% CH3 CN in 0.01M pH 7.0 phosphate buffer at a flow rate of 1.0 mL/min. Dideoxynucleosides and deamination products were detected at the appropriate wavelength of maximum absorption with a Gilson 116 variable wavelength detector. Peak identity was determined from coincidence of retention times with standards and by comparison of on-the-fly UV spectra obtained with a Perkin-Elmer LC-235 diode array detector. Peak areas and peak heights were measured simultaneously on a Spectra-Physics SP4200 computing integrator.

[4] = system: ADA; conditions: vs ddA, determined previously, slightly different conditions; cited from earlier work
[5] = Octanol-water partition coefficient, microscale shake-flask; conditions: octanol/ph 7.0 buffer
Protocol: Measurement of Octanol-Water Partition Coefficients.
n-Octanol-water partition coefficients (P) were determined by a microscale shake-flask procedure, (Ford, H. et al Abstracts of Papers, 200th National Meeting of the American Chemical Society, Washington, D.C.; American Chemical Society: Washington, D.C., 1990; CARB 13) which was modification of an earlier method (Nahum, A. & Horvath, C. J. Chromatogr. 1980, 192, 315). A 20 μL aliquot of a 0.5 mg/mL DMSO solution of the dideoxynucleoside was dissolved in 1.0 mL of octanol-saturated, pH 7.0, 0.01M potassium phosphate buffer. This was mixed thoroughly with 1.0 ml of buffer-saturated n-octanol in a 2-mL Mixxor apparatus at 24°-26° C. and then allowed to stand for 15 min. The phases were separated, centrifuged at 600×g for 5 min, and the relative concentration of sample in each phase determined by HPLC analysis of a 50 μl aliquot. The partition coefficient was calculated by dividing the absolute area of the appropriate integrated peak from the octanol phase by that of the buffer phase (Table I).
Octanol/pH 7.0 buffer partition coefficients were determined using a newly developed microscale method. […] The addition of a methyl group normally increases the log P value of a compound by about 0.5.

[6] = system: human immunodeficiency virus (HIV); conditions: background statement; cited from earlier work
[7] = Toxicity on ATH8 target cells (% toxicity, dye exclusion); assay type: cell-based; conditions: human, ath8 cells, 10 μM
Protocol: as §1
as §2, with “(Mitsuya, H. & Broder, S. Proc. Nat. Acad. Sci. USA 1986, 83, 1911) Briefly, 200,000 target CD4^+ ATH8 cells were exposed to cell-free HIV-1/IIIB at a dose of 43 (or 1087 for compound 1g) TCID50 (50% tissue culture infectious dose) for 1 h, resuspended in 2 ml of fresh culture media containing interleukin 2, and cultured at 37° C. with or without test compounds in 5% CO2 -containing humidified air.” left out

[8] = in vivo; cited from earlier work

Nc1ncnc2c1ncn2[C@@H]1O[C@H](CO)C[C@@H]1F [Compound 1a, 2', 3'-dideoxy-2'-fluoroarabinosyladenine, reference compound]
anti-HIV activity with supplementary ADA (in words) ([1]; ATH8 cells, ADA (0.7 U/mL) added): did not change its activity | anti-HIV activity in the presence of dCF (in words) ([1]; ATH8 cells, dCF added): no important changes in the protection | toxicity in the presence of dCF (in words) [2]: appeared to be potentiated | % Toxicity ([2]; human, 11520 min): 11% | half-life at 50 µM [3]: 1.33 min | half-life at 50 µM ([3]; t1/2 of hydrolysis by adenosine deaminase): 1.33 min | vmax ([3]; pH 7.4 and 37° C.): 2.3 × 10^-1 μmol/min/U | hydrolysis by ADA, times slower than ddA ([3]; vs ddA, 50 μM substrate): 17 times slower | hydrolysis by ADA, times slower than ddA [4]: ca. 10 times slower

O=c1[nH]cnc2c1ncn2[C@@H]1O[C@H](CO)C[C@@H]1F [Compound 1b, 2', 3'-dideoxy-2'-fluoroarabinosylhypoxanthine, reference compound]
logD ([5]; pH 7): -1.21 ± 0.02 | deamination product / product formation (in words) ([3]; 0.7 U/mL ADA, 37° C.): the rate of formation of 1b corresponded to the rate of disappearance of 1f | in vitro activity against HIV (in words) [6]: known active inosine analogue

Nc1ncnc2c1ncn2[C@H]1CC[C@@H](CO)O1 [ddA, dideoxyadenosine, reference compound]
logD ([5]; pH 7, Log P): -0.29 ± 0.01 | % Protection ([1]; 10 μM, with dCF (5 μm), 11520 min): 86% | inhibition at 10 µM ([1]; Human immunodeficiency virus 1, IIIB, ATH-8, 192 h, 10 μM, without dCF): 100% | cytotoxicity at 192 h, 10 µM ([7]; with dCF (5 μm)): 22% | cytotoxicity at 192 h, 10 µM ([7]; without dCF): 0% | toxicity in the presence of dCF (in words) ([2]; ATH8 cells, dCF added): appeared to be potentiated | t1/2 of hydrolysis by adenosine deaminase ([3]; 50 μM, extrapolated from 0.07 units/mL ADA to 0.7 units/mL, 37° C.): 0.083 min | half-life at 50 µM [3]: 0.0833 min

Nc1ccn([C@H]2CC[C@@H](CO)O2)c(=O)n1 [ddC, dideoxycytidine, reference compound]
logD ([5]; pH 7, Log P): -1.33 ± 0.01 | CNS entry (in words) [8]: failure of ddC to achieve significant CNS levels

Cc1ccc(C(=O)Nc2ccc(S(=O)(=O)O)c3cc(S(=O)(=O)O)cc(S(=O)(=O)O)c23)cc1NC(=O)c1cccc(NC(=O)Nc2cccc(C(=O)Nc3cc(C(=O)Nc4ccc(S(=O)(=O)O)c5cc(S(=O)(=O)O)cc(S(=O)(=O)O)c45)ccc3C)c2)c1 [suramin]
HIV replication in presence of compound (in words) [6]: HIV replication is considerably slower

antimoniotungstate
HIV replication in presence of compound (in words) [6]: HIV replication is considerably slower
